Experiment [1] concerns Streptococcus pneumoniae. Description: Antibacterial activity against Streptococcus pneumoniae assessed as the reduction in bacterial growth incubated for 24 hrs by dilution antimicrobial susceptibility test. The class given is functional.
The nature of experiment [2]: Inhibition of Trypanosoma brucei LeuRS preincubated for 20 mins followed by ATP addition measured after 15 mins in presence of [14C]leucine by scintillation counting method.
The target in experiment [3] is Leucine--tRNA ligase (Escherichia coli (strain K12), UniProt P07813). Put plainly: Binding affinity to Escherichia coli LeuRS.
Sequence of Leucine--tRNA ligase (P07813 whole entry): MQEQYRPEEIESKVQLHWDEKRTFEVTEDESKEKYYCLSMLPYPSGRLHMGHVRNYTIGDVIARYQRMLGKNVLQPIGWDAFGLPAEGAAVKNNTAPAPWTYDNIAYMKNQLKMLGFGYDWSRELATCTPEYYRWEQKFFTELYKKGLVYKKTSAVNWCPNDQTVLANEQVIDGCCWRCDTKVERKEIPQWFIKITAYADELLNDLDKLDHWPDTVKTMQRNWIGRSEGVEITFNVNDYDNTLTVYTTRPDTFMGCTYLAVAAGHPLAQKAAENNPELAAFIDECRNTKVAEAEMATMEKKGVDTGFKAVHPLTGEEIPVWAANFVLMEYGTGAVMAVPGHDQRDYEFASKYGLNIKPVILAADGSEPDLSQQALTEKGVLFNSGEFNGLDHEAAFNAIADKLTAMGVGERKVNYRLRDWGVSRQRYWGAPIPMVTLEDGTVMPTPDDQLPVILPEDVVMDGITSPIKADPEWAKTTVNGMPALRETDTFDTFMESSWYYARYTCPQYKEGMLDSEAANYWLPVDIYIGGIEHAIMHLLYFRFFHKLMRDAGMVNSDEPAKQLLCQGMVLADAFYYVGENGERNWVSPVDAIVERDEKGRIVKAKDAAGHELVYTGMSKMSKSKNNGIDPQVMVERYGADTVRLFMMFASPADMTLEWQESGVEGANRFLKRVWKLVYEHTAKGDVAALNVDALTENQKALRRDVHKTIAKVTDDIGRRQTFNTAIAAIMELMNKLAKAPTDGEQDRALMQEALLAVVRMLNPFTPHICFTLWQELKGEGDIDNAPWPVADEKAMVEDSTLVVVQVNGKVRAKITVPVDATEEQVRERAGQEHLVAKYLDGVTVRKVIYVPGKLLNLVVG
Experiment [4] in a line: Inhibition of Trypanosoma brucei LeuRS presence of [14C]leucine by scintillation counting method.
Experiment [5] relates to Trypanosoma brucei. Description: Inhibition of Trypanosoma brucei LeuRS assessed as residual activity at 100 uM incubated for 5 mins in presence of [14C]leucine by scintillation counting method relative to control.
A short description of experiment [6]: Inhibition of human LeuRS after 10 mins in presence of [3H]leucine by scintillation counting method.
Experiment [7] is described as follows: Selectivity index, ratio of IC50 for human cytoplasmic LeuRS to IC50 for Trypanosoma brucei LeuRS.
Experiment [8] relates to Mycobacterium tuberculosis. Description: Antitubercular activity against Mycobacterium tuberculosis H37Rv by time-kill assay. It counts as functional.

In brackets after ≈: the same amount, converted by molar mass.

Here are results for 13 compounds from ChEMBL document CHEMBL4373645, “Recent development of leucyl-tRNA synthetase inhibitors as antimicrobial agents” (Medchemcomm, 2019).

By MIC is commonly meant the lowest concentration that inhibits growth of the organism. For orientation: IC50 means the point on the concentration scale where inhibition reaches its midpoint. In general, Kd refers to the free concentration of one partner at which half of the binding sites on the other are occupied at equilibrium, for simple one-to-one binding. A higher Kd goes with weaker binding.

For `OB1OCc2ccc(C(O)c3ccccc3)cc21` (stereo not drawn), the MIC in experiment [1] is 5 µg/mL (≈ 20.8 µM).

Regarding `O=C(COc1ccc(Br)cc1Cl)NC(=S)Nc1cccc(S(=O)(=O)NC(=O)[C@H](Cc2ccccc2)NC(=O)OCc2ccccc2)c1`, the IC50 in experiment [2] is 13.7 µM.

As for `NS(=O)(=O)c1ccc(NC(=S)NC(=O)COc2ccc(Br)cc2Cl)cc1`, in experiment [2], the IC50 was found to be 174 µM.

Regarding `Cc1cc(-c2cccc(S(=O)(=O)CC(=O)[C@@H](N)CC(C)C)c2)ncn1`, the Kd in experiment [3] is 0.0014 µM.

As for `O=c1nc(Nc2cc(Cl)ccc2O)cn[nH]1`, the IC50 in experiment [4] was 7.2 µM. In addition, in experiment [5], the Activity worked out at 18%.

For `COc1cccc(C(=O)NC(=S)Nc2cccc(S(=O)(=O)NC(=O)[C@@H](N)CC(C)C)c2)c1`, the IC50 in experiment [6] stood at 40 µM; in experiment [2] it was 6.7 µM. In addition, in experiment [7], the Ratio IC50 was 4.5 to 7.3.

Turning to `NCC1OB(O)c2ccccc21` (stereo not drawn), the MIC in experiment [8] was determined as 1.8 µg/mL (≈ 11 µM).

Consider `Cc1n[nH]c(=O)nc1Nc1cc(Cl)ccc1O`, for which the IC50 in experiment [4] is 7.6 µM. Moreover, the Activity in experiment [5] turned out to be 2.3%.

Regarding `COc1ccc(C(=O)NC(=S)Nc2cccc(S(=O)(=O)NC(=O)[C@@H](N)CC(C)C)c2)cc1`, the IC50 in experiment [6] was found to be 33.9 µM; in experiment [2] it was 5.6 µM. In addition, the Ratio IC50 in experiment [7] was in the range of 4.5 to 7.3.

Take `CC(C)C[C@H](N)C(=O)NS(=O)(=O)c1cccc(NC(=S)NC(=O)c2ccccc2)c1`: the half-inhibitory concentration (IC50) in experiment [6] was 55.5 µM; in experiment [2], 7.6 µM. Besides, the Ratio IC50 in experiment [7] was in the range of 4.5 to 7.3.

For `CC(C)C[C@H](N)C(=O)NS(=O)(=O)c1cccc(NC(=S)NC(=O)COc2ccc(Br)cc2Cl)c1`, the IC50 in experiment [6] came to 4.9 µM; in experiment [2], 1.1 µM. The Ratio IC50 in experiment [7] fell in the range of 4.5 to 7.3.

In experiment [8], `OB1OCc2ccccc21` [BENZOXABOROLE] showed an MIC of 7.5 µg/mL (≈ 56 µM).

Take `CC(C)C[C@H](NC(=O)OCc1ccccc1)C(=O)NS(=O)(=O)c1cccc(NC(=S)NC(=O)COc2ccc(Br)cc2Cl)c1`: the IC50 in experiment [2] is 16.7 µM.
